Assay results reported in US9458132B2, “Therapeutic compounds and compositions and their use as PKM2 modulators” (AGIOS PHARMACEUTICALS, INC., priority 2012, dated 2016).

Experiments:
Format in all cases: biochemical
[1] = molecular target: PKR R510Q (Homo sapiens, UniProt P30613, R510Q); assay: PKR mutant assay, PKR R510Q AC50; settings: mutant PKR R510Q enzyme
Description: (§1) • PKR or PKR mutant enzyme solution was diluted in assay buffer. • 2 μL of test compound was added into wells first, and then 180 μL reaction mix was added. • Reactions mixture with test compound was assembled except for ADP, and plates were stored for 60 minutes at room temperature. • 20 uL ADP was added to start reaction at room temperature and reaction progress was measured as changes in absorbance at 340 nm wavelength at room temperature.
Test Compound Preparation: • Test compound stock was made at 100x concentration in 100% DMSO (10 mM) • 1 to 3 dilutions were made for 11 points (i.e. 50 μl of first concentration added to 100 μl 100% DMSO to yield 3.33 mM, 50 μl of this added to 100 μl DMSO to yield 1.11 mM, and so forth) • 1 to 100 dilution into assay (2 μl in 200 μl) yielded starting concentration of 100 μM, decreasing 3 fold for 11 points • Assay Buffer: 100 mM KCl, 50 mM Tris 7.5, 5 mM MgCl2, 1 mM DTT, 0.03% BSA • Reaction Mixture: PKR mutant enzyme: 80-400 ng/well; ADP: 0.22-1.65 mM; PEP: 0.1-0.5 mM; NADH:180 uM; LDH: 0.5 units (Sigma#59023); DTT: 1 mM; BSA: 0.03%. […]

[2] = molecular target: PKR R532W (Homo sapiens, UniProt P30613, R532W); assay: PKR mutant assay, PKR R532W AC50; settings: mutant PKR R532W enzyme
Sequence of PKR R532W (P30613 whole entry R532W): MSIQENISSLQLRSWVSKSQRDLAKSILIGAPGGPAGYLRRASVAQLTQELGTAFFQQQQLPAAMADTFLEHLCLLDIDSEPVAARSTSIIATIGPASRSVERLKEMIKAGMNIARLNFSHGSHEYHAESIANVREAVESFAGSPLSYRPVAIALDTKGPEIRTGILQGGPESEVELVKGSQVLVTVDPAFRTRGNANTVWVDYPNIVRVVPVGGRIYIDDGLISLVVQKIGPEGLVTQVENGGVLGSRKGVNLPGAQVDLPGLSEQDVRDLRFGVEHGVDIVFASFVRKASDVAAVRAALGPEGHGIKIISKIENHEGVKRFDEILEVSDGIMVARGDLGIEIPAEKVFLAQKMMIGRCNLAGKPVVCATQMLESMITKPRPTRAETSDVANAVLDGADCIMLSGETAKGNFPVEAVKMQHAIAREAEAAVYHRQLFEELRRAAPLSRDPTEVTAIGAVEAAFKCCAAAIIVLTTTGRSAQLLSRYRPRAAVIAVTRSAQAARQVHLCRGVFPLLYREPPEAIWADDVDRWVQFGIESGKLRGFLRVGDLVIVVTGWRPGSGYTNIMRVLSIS
Description: as §1
(§2) Test Compound Preparation: • Test compound stock was made at 100x concentration in 100% DMSO (10 mM) • 1 to 3 dilutions were made for 11 points (i.e. 50 μl of first concentration added to 100 μl 100% DMSO to yield 3.33 mM, 50 μl of this added to 100 μl DMSO to yield 1.11 mM, and so forth) • 1 to 100 dilution into assay (2 μl in 200 μl) yielded starting concentration of 100 μM, decreasing 3 fold for 11 points • Assay Buffer: 100 mM KCl, 50 mM Tris 7.5, 5 mM MgCl2, 1 mM DTT, 0.03% BSA • Reaction Mixture: PKR mutant enzyme: 80-400 ng/well; ADP: 0.22-1.65 mM; PEP: 0.1-0.5 mM; NADH:180 uM; LDH: 0.5 units (Sigma#59023); DTT: 1 mM; BSA: 0.03%.
(§3) A compound described herein was diluted with DMSO and tested at 1 μM concentration. The enzyme was diluted in 1× Buffer: (100 mM KCl, 50 mM Tris 7.5, 5 mM MgCl2, 1 mM DTT, 0.03% BSA). 2 μL of compound solution was first added into wells, and then 180 μL of enzyme solution was added. Assays were assembled except for ADP, and plates were stored for 60 minutes at RT. 20 μL ADP was added to start the assay and assay output was evaluated using OD340 at SpectraMax. The assay was run at room temperature. • Final concentration: PKR R532W (100 ng/well), Tris pH 7.5 (50 mM), KCl (100 mM), MgCl2 (5 mM), ADP (0.36 mM), PEP (0.1 mM), NADH (180 μM), LDH (0.5 units, Sigma 59023), DTT (1 mM) and BSA (0.03%).

[3] = molecular target: PKR WT (Homo sapiens, UniProt P30613); assay: PKR WT enzymatic assay AC50; settings: wild type PKR
Sequence of PKR WT (P30613 whole entry): as the sequence (P30613 whole entry R532W) above, with W532R counted along it
Description: as §1, §2
as §3, with “wt” for “R532W”, “(0.48” for “(0.36”, “(0.15” for “(0.1”

Sequence of PKR R510Q (P30613 whole entry R510Q): as the sequence (P30613 whole entry R532W) above, with R510Q, W532R counted along it

Row | Compound | AC50 [1] [µM] | AC50 [2] [µM] | AC50 [3] [µM]
1 | O=C(c1ccc(NS(=O)(=O)c2cccc3cccnc23)cc1)N1CC(O)(c2ccccc2F)C1 [Compound 3, N-(4-(3-(2-fluorophenyl)-3-hydroxyazetidine-1-carbonyl)phenyl)quinoline-8-sulfonamide] | 1.01 to 10 | 0.101 to 1 | 0.101 to 1
2 | O=C(c1ccc(NS(=O)(=O)c2cccc3cccnc23)cc1)N1CC(O)(c2ccccc2C(F)(F)F)C1 [Compound 6, N-(4-(3-hydroxy-3-(2-(trifluoromethyl)phenyl)azetidine-1-carbonyl)phenyl)quinoline-8-sulfonamide] | 0.101 to 1 | 0.101 to 1 | 0.101 to 1
3 | O=C(c1ccc(NS(=O)(=O)c2cccc3cccnc23)cc1)N1CC(O)(c2ccc(F)cc2)C1 [Compound 14, N-(4-(3-(4-fluorophenyl)-3-hydroxyazetidine-1-carbonyl)phenyl)quinoline-8-sulfonamide] | 1.01 to 10 | 0.101 to 1 | 0.101 to 1
4 | O=C(c1ccc(NS(=O)(=O)c2cccc3cccnc23)cc1)N1CC(O)(c2cccnc2F)C1 [Compound 18, N-(4-(3-(2-fluoropyridin-3-yl)-3-hydroxyazetidine-1-carbonyl)phenyl)quinoline-8-sulfonamide] | 1.01 to 10 | 0.101 to 1 | 0.101 to 1
5 | COc1cccnc1C1(O)CN(C(=O)c2ccc(NS(=O)(=O)c3cccc4cccnc34)cc2)C1 [Compound 21, N-(4-(3-hydroxy-3-(3-methoxypyridin-2-yl)azetidine-1-carbonyl)phenyl)quinoline-8-sulfonamide] | 1.01 to 10 | – | 1.01 to 10
6 | O=C(c1ccc(NS(=O)(=O)c2cccc3cccnc23)cc1)N1CC(O)(c2ncccc2F)C1 [Compound 22, N-(4-(3-(3-fluoropyridin-2-yl)-3-hydroxyazetidine-1-carbonyl)phenyl)quinoline-8-sulfonamide] | 1.01 to 10 | 0.101 to 1 | 0.101 to 1

The remaining lines, values ahead:

Row | AC50 [1] [µM] | AC50 [2] [µM] | AC50 [3] [µM] | Compound
7 | > 10 | – | 1.01 to 10 | O=C(c1ccc(NS(=O)(=O)c2cccc3cccnc23)cc1)N1CC(O)(c2ncccc2Cl)C1 [Compound 23, N-(4-(3-(3-chloropyridin-2-yl)-3-hydroxyazetidine-1-carbonyl)phenyl)quinoline-8-sulfonamide]
8 | 1.01 to 10 | – | 0.101 to 1 | O=C(c1ccc(NS(=O)(=O)c2cccc3cccnc23)cc1)N1CC(O)(c2ncccc2C(F)(F)F)C1 [Compound 24, N-(4-(3-hydroxy-3-(3-(trifluoromethyl)pyridin-2-yl)azetidine-1-carbonyl)phenyl)quinoline-8-sulfonamide]
9 | 1.01 to 10 | – | 0.101 to 1 | O=C(c1ccc(NS(=O)(=O)c2cccc3cccnc23)cc1)N1CC(O)(c2ncccc2OC(F)F)C1 [Compound 25, N-(4-(3-(3-(difluoromethoxy)pyridin-2-yl)-3-hydroxyazetidine-1-carbonyl)phenyl)quinoline-8-sulfonamide]
10 | – | > 10 | > 10 | O=C(c1ccc(NS(=O)(=O)c2cccc3cnccc23)cc1)N1CC(O)(Cc2ccccc2)C1 [Compound 48, N-(4-(3-benzyl-3-hydroxyazetidine-1-carbonyl)phenyl)isoquinoline-5-sulfonamide]
11 | – | > 10 | – | O=C(c1ccc(NS(=O)(=O)c2ccc(C(F)(F)F)cc2)cc1)N1CC(O)(Cc2ccccc2)C1 [Compound 50, N-(4-(3-benzyl-3-hydroxyazetidine-1-carbonyl)phenyl)-4-(trifluoromethyl)benzenesulfonamide]
12 | > 10 | – | – | Cc1cccnc1C1(O)CN(C(=O)c2ccc(NS(=O)(=O)c3cccc4cccnc34)cc2)C1 [Compound 59]
13 | – | > 10 | > 10 | O=C(c1ccc(NS(=O)(=O)c2ccc(OC(F)(F)F)cc2)cc1)N1CC(O)(Cc2ccccc2)C1 [Compound 65]
14 | – | > 10 | > 10 | CN1C(=O)Cc2cc(S(=O)(=O)Nc3ccc(C(=O)N4CC(O)(Cc5ccccc5)C4)cc3)ccc21 [Compound 66]
